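48-hour exposure; five concentrations; linearly interpolated endpoints. GI50 marks 50% less growth. At the TGI there is no net growth.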
Legend:
Experiment in all cases: NCI anticancer screen, dose series, 48 h
K-562 leukemia = system: K-562 leukemia
U251 CNS = system: U251 CNS
HOP-62 NSCLC = system: HOP-62 NSCLC
EKVX NSCLC = system: EKVX NSCLC
SK-MEL-5 melanoma = system: SK-MEL-5 melanoma
HT29 colon = system: HT29 colon
RPMI-8226 leukemia = system: RPMI-8226 leukemia
SF-539 CNS = system: SF-539 CNS
786-0 renal = system: 786-0 renal
M14 melanoma = system: M14 melanoma

SMILES	TGI (K-562 leukemia) [µM]	TGI (U251 CNS) [µM]	TGI (HOP-62 NSCLC) [µM]	TGI (EKVX NSCLC) [µM]	TGI (SK-MEL-5 melanoma) [µM]	TGI (HT29 colon) [µM]	TGI (RPMI-8226 leukemia) [µM]	TGI (SF-539 CNS) [µM]	TGI (786-0 renal) [µM]	TGI (M14 melanoma) [µM]	GI50 (K-562 leukemia) [µM]	GI50 (U251 CNS) [µM]	GI50 (HOP-62 NSCLC) [µM]	GI50 (EKVX NSCLC) [µM]	GI50 (SK-MEL-5 melanoma) [µM]	GI50 (HT29 colon) [µM]	GI50 (RPMI-8226 leukemia) [µM]	GI50 (SF-539 CNS) [µM]	GI50 (786-0 renal) [µM]	GI50 (M14 melanoma) [µM]
O=C(C(O)c1cn(Cc2ccccc2)c2ccccc12)N1CCCCC1 (stereo not given)	> 100	> 10	> 100	> 100	> 100	> 100	> 100	> 100	> 100	> 100	–	–	–	–	–	–	–	–	–	–
CCOc1ccccc1NC(=O)/C=C1\NC(=O)CS1	> 100	> 100	> 100	> 100	> 100	> 100	> 100	> 100	> 100	> 100	–	–	–	–	–	–	–	–	–	–
CN1CCN(Cc2ccc(NC(=O)c3cncc(C#Cc4cnc(N)c5ccc(F)cc45)c3)cc2C(F)(F)F)CC1	0.683	6.56	7.24	7.89	6.68	4.14	26.2	6.13	9.99	4.4	0.0128	2.14	2.89	3.84	2.26	0.956	1.27	2.03	3.95	0.974
Nc1nc(-c2cccc([N+](=O)[O-])c2)c(Br)c(=O)[nH]1	> 100	> 100	> 100	> 100	> 91.1	> 100	> 100	> 82	> 100	> 64.2	–	–	–	–	–	–	–	–	–	–
CCCCCCNC(=O)C1=C(C)NC(C)=C(C(=O)NCCCCCC)C1	> 100	> 100	> 100	> 100	> 100	> 100	> 100	> 100	> 100	> 100	–	–	–	–	–	–	–	–	–	–
C=CCCCCCCCCCCCC1CCC(CC)N1 (stereo not given)	28.1	25.5	28.5	31.4	25.5	14	31.9	25.3	21.8	24.6	–	–	–	–	–	–	–	–	–	–
CCN(CC)c1ccc(N=Nc2ccc(-c3nc4cccnc4o3)cc2)cc1	> 100	> 100	> 100	> 100	> 100	> 100	> 100	> 100	> 100	> 100	–	–	–	–	–	–	–	–	–	–
O=[N+]([O-])c1ccc2[nH]cc(-c3c4ccsc4cc4[nH]c5ccc([N+](=O)[O-])cc5c34)c2c1	12.3	16.6	9.25	11.4	2.01	12.5	5.1	1.91	3.52	1.39	0.664	1.1	1.13	1.56	0.394	1.21	1.04	0.697	0.877	0.527
Cc1c(CCCl)c(=O)n2c([nH]c3ccccc32)c1C#N	> 10	3.45	3.21	3.65	2.8	3.49	7.45	2.79	2.84	2.99	–	–	–	–	–	–	–	–	–	–

Reference: PubChem BioAssay (NCI)
